The experiment has as its target Plasma kallikrein (Homo sapiens, UniProt P03952). Briefly: In Vitro Enzyme Inhibition Assay: The ability of the compounds disclosed herein to inhibit human plasma kallikrein activity was quantified according to the procedures below.A 10 mM solution of the test compound was made in DMSO. […] A control tube containing only DMSO is included. […] 50 μL was removed from this mixture and placed into duplicate wells on a Microfluor 1Black U-bottom microtiter plate (Thermo Scientific). This plate was incubated for 5 minutes at 37° C. To each well, 50 μL of pre-warmed 2×PFR-AMC was added to start the enzymatic reaction. Cleavage of PFR-AMC was monitored in a Biotek Synergy H4 reader set at 37° C. Readings are taken every 43 seconds for 1 hour.

Some results are limits rather than exact numbers.

Plasma kallikrein, sequence (P03952 20-390 limits assumed): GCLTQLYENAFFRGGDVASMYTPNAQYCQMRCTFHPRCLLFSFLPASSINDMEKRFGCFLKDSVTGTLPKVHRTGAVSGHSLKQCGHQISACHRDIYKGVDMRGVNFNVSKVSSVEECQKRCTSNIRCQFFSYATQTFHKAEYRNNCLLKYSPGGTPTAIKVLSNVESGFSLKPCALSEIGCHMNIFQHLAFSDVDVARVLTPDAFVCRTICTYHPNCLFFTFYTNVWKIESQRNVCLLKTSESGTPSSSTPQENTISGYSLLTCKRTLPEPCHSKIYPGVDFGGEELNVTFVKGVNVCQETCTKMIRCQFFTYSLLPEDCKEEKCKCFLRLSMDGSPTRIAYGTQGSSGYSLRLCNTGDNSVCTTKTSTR
Plasma kallikrein, sequence (P03952 391-638 limits assumed): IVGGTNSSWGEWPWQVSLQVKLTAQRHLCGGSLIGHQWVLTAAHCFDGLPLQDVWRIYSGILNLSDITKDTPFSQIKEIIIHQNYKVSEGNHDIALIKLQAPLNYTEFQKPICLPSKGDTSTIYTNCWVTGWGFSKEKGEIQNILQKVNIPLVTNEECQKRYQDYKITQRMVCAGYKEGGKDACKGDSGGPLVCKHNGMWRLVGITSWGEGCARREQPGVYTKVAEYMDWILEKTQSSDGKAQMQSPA

In the case of `Cc1nc(N)ccc1CNC(=O)c1ccnc(Cc2cc(C#N)c3ncc(Cl)cc3c2)c1`, the IC50 (in general, the point on the concentration scale where inhibition reaches its midpoint) is < 100 nM. Next, `N#Cc1ccc2cc(Cc3cc(C(=O)NCc4cc5c(Cl)c[nH]c5cc4F)ccn3)ccc2n1`: < 100 nM.

Source of the values: ChEMBL document CHEMBL5726081, “Therapeutic inhibitory compounds” (2017).
